Test system: Aβ1-40 production in rat cortical neurons
Assay: Aβ1-40 level in conditioned medium of rat cortical neurons (rodent Aβ immunoassay)
Assay type: cell-based
Settings: rat cortical neurons of 7 days of culture, treated at various concentrations for 7 days (FIG. 2B); read-out: IC50 for reduction of Aβ1-40 level in conditioned medium
Procedure: Mouse monoclonal antibody specific for the N-terminal of mouse/rat Aβ was immobilized by incubation of 96-well polystyrene plate with 50 ul of the antibody at 4 ug/ml in each well in a coating buffer (0.1 M NaHCO3 pH 8.2) overnight at 4° C. The plates were washed thereafter each step for 3 times with 200 μl/well PBST (PBS with 0.5% Tween-20). The wells were then sequentially incubated with 50 μl/well test samples containing mouse/rat or human Aβ1-40 or Aβ1-42 overnight at 4° C. Primary rabbit antibodies specific for either Aβ1-40 or Aβ1-42 (BioSource International Inc., Camarillo, Calif.) were added to each well at 50 ul/well for a final concentration of 400 ng/ml, and incubated at room temperature. […] The color signal was measured at […] in a spectrophotometer. […] This indicates the specificity of the assay for rodent Aβ The assay detected both mouse/rat Aβ1-40 and Aβ1-42 at levels less than 15 ng/ml (FIG. 1C).
The amount released can be reduced by a γ-secretase inhibitor. […] The cortical neurons of 7 days of culture were treated with gamma-secretase inhibitor L-685,458 at various concentrations for 7 days and the Aβ1-40 level was measured in the conditioned medium. […]
The effect of nicotinic receptor ligands on Aβ production was analyzed by measurement of the Aβ1-40 level in the conditioned media of rat cortical cultures treated with α7 nAChR selective ligands for 7 days. […]

IC50: 431 nM
SMILES: CC(C)C[C@H](NC(=O)[C@H](Cc1ccccc1)C[C@@H](O)[C@H](Cc1ccccc1)NC(=O)OC(C)(C)C)C(=O)N[C@@H](Cc1ccccc1)C(N)=O [L-685,458]
